Reference: publication PMC7587356, “High-Throughput Screening for Inhibitors of the SARS-CoV-2 Protease Using a FRET-Biosensor” (Molecules, 2020)
Where a name gives a salt, the structure may show the parent alone. Read-outs that look alike come from different tables or passages of the source.

Target: SARS-CoV-2 3CLpro (Severe acute respiratory syndrome coronavirus 2, UniProt P0DTD1)
Experiment: biochemical
Format: biochemical
Design: Replicate_1 / Replicate_2 / mean / mean (LOPAC_screen_w_protease): unit not given here
Settings: for inhibition at 5 µM: 4 h
[1] = sheet LOPAC_screen_w_protease, LOPAC1280 primary screen with protease, 5 µM compound, mean of the two replicates, read-out: mean
[2] = sheet LOPAC_screen_w_protease, LOPAC1280 primary screen with protease, 5 µM compound, replicate 1, read-out: Replicate_1
[3] = sheet LOPAC_screen_w_protease, LOPAC1280 primary screen with protease, 5 µM compound, replicate 2, read-out: Replicate_2
[4] = LOPAC1280 primary screen with protease, 5 µM compound, mean of the two replicates
[5] = LOPAC1280 primary screen with protease, 5 µM compound, replicate 1
[6] = LOPAC1280 primary screen with protease, 5 µM compound, replicate 2
[7] = LOPAC1280 primary screen with protease, 5 µM compound, replicate 1, read-out: Replicate_1 (LOPAC_screen_w_protease)
[8] = LOPAC1280 primary screen with protease, 5 µM compound, replicate 2, read-out: Replicate_2 (LOPAC_screen_w_protease)
[9] = LOPAC1280 primary screen with protease, 5 µM compound, mean of two replicates
[10] = sheet LOPAC_screen_w_protease, primary screen of LOPAC1280 at 5 µM with protease, mean of the two replicates, read-out: mean
[11] = sheet LOPAC_screen_w_protease, primary screen of LOPAC1280 at 5 µM with protease, replicate 1, read-out: Replicate_1
[12] = sheet LOPAC_screen_w_protease, primary screen of LOPAC1280 at 5 µM with protease, replicate 2, read-out: Replicate_2
[13] = sheet LOPAC_screen_w_protease, primary screen with protease, mean of two replicates
[14] = sheet LOPAC_screen_w_protease, primary screen with protease, replicate 1
[15] = sheet LOPAC_screen_w_protease, primary screen with protease, replicate 2
[16] = sheet LOPAC_screen_w_protease, LOPAC1280 primary screen at 5 µM, with protease, mean of the two replicates
[17] = sheet LOPAC_screen_w_protease, LOPAC1280 primary screen at 5 µM, with protease, replicate 1
[18] = sheet LOPAC_screen_w_protease, LOPAC1280 primary screen at 5 µM, with protease, replicate 2
[19] = sheet LOPAC_screen_w_protease, primary screen with protease, mean of two replicates, read-out: mean
[20] = sheet LOPAC_screen_w_protease, primary screen with protease, replicate 1, read-out: Replicate_1
[21] = sheet LOPAC_screen_w_protease, primary screen with protease, replicate 2, read-out: Replicate_2

COCC(=O)O[C@]1(CCN(C)CCCc2nc3ccccc3[nH]2)CCc2cc(F)ccc2[C@@H]1C(C)C [Mibefradil dihydrochloride]
inhibition at 5 µM [1]: 4.42% | inhibition at 5 µM [2]: 3.3% | inhibition at 5 µM [3]: 5.54%

CC(=O)NBr [N-Bromoacetamide]
mean (LOPAC_screen_w_protease) [4]: 1.955 | Replicate_1 (LOPAC_screen_w_protease) [5]: 1.503 | Replicate_2 (LOPAC_screen_w_protease) [6]: 2.407

NNc1nncc2ccccc12 [Hydralazine hydrochloride]
inhibition at 5 µM (read-out: Replicate_1): 4.76% | inhibition at 5 µM (read-out: Replicate_2): 1.31% | inhibition at 5 µM (read-out: mean): 3.03%

Oc1cc2c(cc1O)[C@H]1c3ccccc3CN[C@@H]1CC2 (racemic) [Dihydrexidine hydrochloride]
inhibition at 5 µM (read-out: Replicate_1 (LOPAC screen with protease)): 96.2% | inhibition at 5 µM (read-out: Replicate_2 (LOPAC screen with protease)): 98.8% | inhibition at 5 µM (read-out: mean (LOPAC screen with protease)): 97.5%

CCN(CC)CCOC(=O)c1ccc(N)cc1 [Procaine hydrochloride]
inhibition at 5 µM [7]: 1.06% | inhibition at 5 µM [8]: 1.81% | mean (LOPAC_screen_w_protease) [9]: 1.433

CCCC(CCC)C(=O)O [Valproic acid sodium]
inhibition at 5 µM [10]: 3.18% | inhibition at 5 µM [11]: 2.68% | inhibition at 5 µM [12]: 3.67%

C[N+](C)(C)CCOP(=O)([O-])OP(=O)([O-])OC[C@H]1O[C@@H](n2ccc(N)nc2=O)[C@H](O)[C@@H]1O.[Na+] [Citicoline sodium]
mean (LOPAC_screen_w_protease) [4]: 2.039 | Replicate_1 (LOPAC_screen_w_protease) [5]: 0.6867 | Replicate_2 (LOPAC_screen_w_protease) [6]: 3.392

C[C@@H](N)Cc1cnc[nH]1.Cl.Cl
Replicate_1: 2.14 | Replicate_2: -0.08051 | mean: 1.03

Cl.N=C(N)NN [Aminoguanidine hydrochloride]
mean [13]: 2.381 | Replicate_1 [14]: 2.212 | Replicate_2 [15]: 2.55

N[C@@H]1C[C@H]1c1ccccc1 [Tranylcypromine hydrochloride]
Replicate_1: 0.4955 | Replicate_2: 0.8775 | mean: 0.6865

Cl.OC1CCCCC1N1CCC(c2ccccc2)CC1 (racemic) [(±)-Vesamicol hydrochloride]
mean [16]: 0.573 | Replicate_1 [17]: 1.205 | Replicate_2 [18]: -0.05902

CN1CCN(c2nc3cc(C(F)(F)F)ccc3n3cccc23)CC1.O=C(O)/C=C\C(=O)O [CGS-12066A maleate]
mean [16]: 0.5818 | Replicate_1 [17]: 1.428 | Replicate_2 [18]: -0.2648

Cn1ccnc1 [1-Methylimidazole]
inhibition at 5 µM [1]: 4.84% | inhibition at 5 µM [2]: 4.68% | inhibition at 5 µM [3]: 4.99%

COc1ccc2c(c1)c(CC(=O)N1CCOCC1)c(C)n2C(=O)c1ccc(Cl)cc1 [Indomethacin morpholinylamide]
inhibition at 5 µM [19]: 2.27% | inhibition at 5 µM [20]: 2.02% | inhibition at 5 µM [21]: 2.53%

NC(=O)c1ncn([C@@H]2O[C@H](CO)[C@@H](O)[C@H]2O)c1O [Mizoribine]
inhibition at 5 µM [1]: 4.8% | inhibition at 5 µM [2]: 4.56% | inhibition at 5 µM [3]: 5.05%

Cc1cc(NC(=O)Nc2ccc3c(ccn3C)c2)sn1 [SB 204741]
mean (sheet LOPAC_screen_w_protease, primary screen with protease, 5 µM, mean of two replicates): 0.4215 | Replicate_1 (sheet LOPAC_screen_w_protease, primary screen with protease, 5 µM, replicate 1): 0.3793 | Replicate_2 (sheet LOPAC_screen_w_protease, primary screen with protease, 5 µM, replicate 2): 0.4638

Nc1nc2[nH]c(=O)cnc2c(=O)[nH]1 [Isoxanthopterin]
inhibition at 5 µM [19]: 2.42% | inhibition at 5 µM [20]: 3.73% | inhibition at 5 µM [21]: 1.11%

CN(Cc1cnc2nc(N)nc(N)c2n1)c1ccc(C(=O)N[C@@H](CCC(=O)O)C(=O)O)cc1 [(-)Amethopterin]
mean (LOPAC_screen_w_protease) [4]: 2.014 | Replicate_1 (LOPAC_screen_w_protease) [5]: 2.356 | Replicate_2 (LOPAC_screen_w_protease) [6]: 1.671

CC#C[C@]1(O)CC[C@H]2[C@@H]3CCC4=CC(=O)CCC4=C3[C@@H](c3ccc(N(C)C)cc3)C[C@@]21C [Mifepristone]
inhibition at 5 µM [1]: 4.62% | inhibition at 5 µM [2]: 3.53% | inhibition at 5 µM [3]: 5.7%

Cc1nc2c([nH]1)c(=O)n(C)c(=O)n2Cc1ccco1 [Furafylline]
inhibition at 5 µM [7]: 3.1% | inhibition at 5 µM [8]: -0.41% | mean (LOPAC_screen_w_protease) [9]: 1.344

O=C[C@H](Cl)[C@@H](O)[C@H](O)[C@H](O)CO [2-Chloro-2-deoxy-D-glucose]
mean (LOPAC_screen_w_protease) [4]: 1.752 | Replicate_1 (LOPAC_screen_w_protease) [5]: 1.144 | Replicate_2 (LOPAC_screen_w_protease) [6]: 2.361

C[C@@H](N)[C@H]1CC[C@H](C(=O)Nc2ccncc2)CC1.Cl.Cl [Y-27632 dihydrochloride]
mean (LOPAC_screen_w_protease) [9]: 1.325 | Replicate_1 (LOPAC_screen_w_protease) [5]: 2.12 | Replicate_2 (LOPAC_screen_w_protease) [6]: 0.5298

C[N+](C)(C)CCOC(N)=O [Carbachol]
inhibition at 5 µM [7]: 1.69% | inhibition at 5 µM [8]: 1.06% | mean (LOPAC_screen_w_protease) [9]: 1.3763

O=C(O)CCCCCCC1C(=O)NC(=O)N1CCC(O)C1CCCCC1 (stereo not drawn) [BW 245C]
Replicate_1 (LOPAC_screen_w_protease): 2.361 | Replicate_2 (LOPAC_screen_w_protease): 0.3585 | mean (LOPAC_screen_w_protease): 1.3595

O=C(Cc1ccc(Cl)c(Cl)c1)OCCN1CCCC1.O=C(O)C(=O)O [AC 915 oxalate]
mean (sheet LOPAC_screen_w_protease, LOPAC1280 at 5 µM, mean of two replicates): 1.181 | Replicate_1 (sheet LOPAC_screen_w_protease, LOPAC1280 at 5 µM, replicate 1): 1.4848 | Replicate_2 (sheet LOPAC_screen_w_protease, LOPAC1280 at 5 µM, replicate 2): 0.8765

CCn1c(=O)c2nc(-c3ccccc3)[nH]c2n(CC)c1=O [1,3-Diethyl-8-phenylxanthine]
inhibition at 5 µM [10]: 3.47% | inhibition at 5 µM [11]: 3.04% | inhibition at 5 µM [12]: 3.9%

CC1=NS(=O)(=O)c2cc(Cl)ccc2N1 [Diazoxide]
inhibition at 5 µM [10]: 3.37% | inhibition at 5 µM [11]: 4.67% | inhibition at 5 µM [12]: 2.07%

CC(C)(C)NCC(O)c1ccc(O)c(CO)c1.CC(C)(C)NCC(O)c1ccc(O)c(CO)c1.O=S(=O)(O)O (stereo not drawn) [Albuterol hemisulfate]
mean (LOPAC_screen_w_protease) [4]: 2.078 | Replicate_1 (LOPAC_screen_w_protease) [5]: 2.563 | Replicate_2 (LOPAC_screen_w_protease) [6]: 1.593

Br.COc1ccccc1N1CCN(CCCCN2C(=O)c3ccccc3C2=O)CC1 [NAN-190 hydrobromide]
mean (LOPAC_screen_w_protease) [4]: 1.999 | Replicate_1 (LOPAC_screen_w_protease) [5]: 4.031 | Replicate_2 (LOPAC_screen_w_protease) [6]: -0.03323

OCCN1CCN(CC/C=C2/c3ccccc3Sc3ccc(C(F)(F)F)cc32)CC1 [cis-(Z)-Flupenthixol dihydrochloride]
inhibition at 5 µM [19]: 2.17% | inhibition at 5 µM [20]: 2.7% | inhibition at 5 µM [21]: 1.63%

O=C(CCCN1CCC(O)(c2cccc(C(F)(F)F)c2)CC1)c1ccc(F)cc1 [Trifluperidol hydrochloride]
inhibition at 5 µM [7]: -0.00744% | inhibition at 5 µM [8]: 3.06% | mean (LOPAC_screen_w_protease) [9]: 1.525

Cl.NCC(O)c1ccc(O)cc1 (racemic) [(±)-Octopamine hydrochloride]
mean (sheet LOPAC_screen_w_protease, primary screen of LOPAC1280 at 5 µM with protease, mean of the two replicates): 4.023 | Replicate_1 (sheet LOPAC_screen_w_protease, primary screen of LOPAC1280 at 5 µM with protease, replicate 1): 4.835 | Replicate_2 (sheet LOPAC_screen_w_protease, primary screen of LOPAC1280 at 5 µM with protease, replicate 2): 3.21

Nc1ncn([C@@H]2O[C@H](CO)[C@@H](O)[C@H]2O)c(=O)n1 [5-azacytidine]
mean (LOPAC screen with protease) (sheet LOPAC_screen_w_protease, primary screen at 5 µM, mean of two replicates): 9.256 | Replicate_1 (LOPAC screen with protease) (sheet LOPAC_screen_w_protease, primary screen at 5 µM, replicate 1): 17.5612 | Replicate_2 (LOPAC screen with protease) (sheet LOPAC_screen_w_protease, primary screen at 5 µM, replicate 2): 0.9518

N[C@@H](Cc1ccc(O)c(O)c1)C(=O)O [L-3,4-Dihydroxyphenylalanine]
mean (sheet LOPAC_screen_w_protease, LOPAC1280 primary screen with protease, 5 µM compound, mean of the two replicates): 4.21 | Replicate_1 (sheet LOPAC_screen_w_protease, LOPAC1280 primary screen with protease, 5 µM compound, replicate 1): 5.679 | Replicate_2 (sheet LOPAC_screen_w_protease, LOPAC1280 primary screen with protease, 5 µM compound, replicate 2): 2.742

Br.COc1ccc(-c2ccc(=N)n(CCCC(=O)O)n2)cc1 [SR-95531]
Replicate_1 (LOPAC_screen_w_protease): 2.0939 | Replicate_2 (LOPAC_screen_w_protease): 0.7216 | mean (LOPAC_screen_w_protease): 1.408

Nc1ncnc2c1ncn2[C@@H]1O[C@H](CO)[C@@H](O)[C@H]1O [Adenosine]
inhibition at 5 µM (read-out: Replicate_1): 1.26% | inhibition at 5 µM (read-out: Replicate_2): 3.55% | inhibition at 5 µM (read-out: mean): 2.4%

C[N+](C)(C)CCOC(=O)CBr.[Br-] [Bromoacetylcholine bromide]
mean [13]: 2.401 | Replicate_1 [14]: 0.6425 | Replicate_2 [15]: 4.16

CC1(C)CCC2=C(O1)c1ccccc1C(=O)C2=O [beta-Lapachone]
inhibition at 5 µM (read-out: Replicate_1): 0.593% | inhibition at 5 µM (read-out: Replicate_2): 0.52% | inhibition at 5 µM (read-out: mean): 0.557%

Cl.O=S(=O)(c1cccc2c(I)cccc12)N1CCCNCC1 [ML-7]
Replicate_1: 2.299 | Replicate_2: 4.928 | mean: 3.614
